How the values were obtained:
wheat = test: Test B pre/postemergence wheat; type: in vivo, Triticum aestivum
Summary of the method: (§1)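 Test chemicals in a non-phytotoxic solvent mixture with surfactant were sprayed preemergence onto planted seeds and postemergence onto plants 2 to 18 cm tall (1- to 4-leaf stage). After twelve to sixteen days in a greenhouse, injury was visually rated against untreated controls from 0 (no effect) to 10 (complete control).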

sugar beet = test: Test B pre/postemergence sugar beet; type: in vivo, Beta vulgaris
Summary of the method: as §1

rape = test: Test B pre/postemergence rape; type: in vivo, Brassica napus
Summary of the method: as §1

bamyardgrass = test: Test B flood test barnyardgrass; type: in vivo, Echinochloa crus-galli
Summary of the method: (§2)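 Read-out is a visual response score from 0 (no effect) to 10 (complete control), assigned by comparison with untreated controls. Treatment was applied at the 2-leaf stage, and plants stayed in the greenhouse for twelve to sixteen days before scoring.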

soybean = test: Test B pre/postemergence soybean; type: in vivo, Glycine max
Summary of the method: as §1

corn = test: Test B pre/postemergence corn; type: in vivo, Zea mays
Summary of the method: as §1

rice = test: Test B flood test rice; type: in vivo, Oryza sativa
Summary of the method: as §2

purple nutsedge = test: Test B pre/postemergence purple nutsedge; type: in vivo, Cyperus rotundus
Summary of the method: as §1

bedstraw = test: Test B pre/postemergence bedstraw; type: in vivo, Galium aparine; settings: Preemergence; for Bedstraw plant response rating: scale of 0 to 10 where 0 is no effect and 10 is complete control
Summary of the method: as §1

pigweed = test: Test B pre/postemergence pigweed; type: in vivo, Amaranthus retroflexus
Summary of the method: as §1

morningglory = test: Test B pre/postemergence morningglory; type: in vivo, Ipomoea hederacea
Summary of the method: as §1

giant foxtail = test: Test B pre/postemergence giant foxtail; type: in vivo, Setaria faberii
Summary of the method: as §1

cocklebur = test: Test B pre/postemergence cocklebur; type: in vivo, Xanthium strumarium
Summary of the method: as §1

blackgrass = test: Test B pre/postemergence blackgrass; type: in vivo, Alopecurus myosuroides
Summary of the method: as §1

surinam grass = test: Test B pre/postemergence surinam grass; type: in vivo, Brachiaria decumbens
Summary of the method: as §1

smallflower flatsedge = test: Test B flood test smallflower flatsedge; type: in vivo, Cyperus difformis
Summary of the method: as §2

velvetleaf = test: Test B pre/postemergence velvetleaf; type: in vivo, Abutilon theophrasti
Summary of the method: as §1

wild oat = test: Test B pre/postemergence wild oat; type: in vivo, Avena fatua
Summary of the method: as §1

crabgrass = test: Test B pre/postemergence crabgrass; type: in vivo, Digitaria sanguinalis
Summary of the method: as §1

duck salad = test: Test B flood test duck salad; type: in vivo, Heteranthera limosa
Summary of the method: as §2

[1] = Postemergence, Rate 125 g/ha, scale of 0 to 10 where 0 is no effect and 10 is complete control
[2] = Postemergence, Rate 250 g/ha, scale of 0 to 10, 0 is no effect, 10 is complete control
[3] = Postemergence, Rate 500 g/ha, scale of 0 to 10 where 0 is no effect and 10 is complete control
[4] = Postemergence, Rate 1000 g/ha, scale 0 to 10 (0 no effect, 10 complete control)
[5] = Preemergence, Rate 125 g/ha, scale of 0 to 10 where 0 is no effect and 10 is complete control
[6] = Preemergence, Rate 500 g/ha, scale of 0 to 10 where 0 is no effect and 10 is complete control
[7] = Rate 1000 g/ha, Preemergence, scale 0 to 10 (0 no effect, 10 complete control)
[8] = Pre-emergence, Rate 1000 g/ha, scale 0 to 10 (0 no effect, 10 complete control)
[9] = Rate 125 g/ha, under heading Pre-emergence, flood test species, visual evaluation after twelve to sixteen days
[10] = Rate 250 g/ha, Pre-emergence (flood test species), scale 0 to 10, 0 is no effect, 10 is complete control
[11] = Rate 500 g/ha, Pre-emergence section of Table B, 0 to 10 scale (0 no effect, 10 complete control)

CCOP(=O)(Cn1c(=O)on(C(=O)N(c2ccc(Cl)cc2)C(C)C)c1=O)OCC [Compound 599]
Plant response rating, Wheat (wheat; [1]): 0
Wheat plant response rating (wheat; [2]): 0
Plant response rating, Wheat (wheat; [3]): 0
Wheat plant response rating (wheat; [4]): 0
Wheat plant response rating (wheat; [5]): 0
Plant response rating, Wheat (wheat; [6]): 0
Plant response rating, Wheat (wheat; [7]): 0
Plant response rating, Sugarbeets (sugar beet; [1]): 0
Sugarbeets plant response rating (sugar beet; [2]): 0
Plant response rating, Sugarbeets (sugar beet; [3]): 0
Sugarbeets plant response rating (sugar beet; [4]): 0
Sugarbeets plant response rating (sugar beet; [5]): 0
Plant response rating, Sugarbeets (sugar beet; [7]): 2
Plant response rating, Rape (rape; [1]): 0
Rape plant response rating (rape; [2]): 0
Plant response rating, Rape (rape; [3]): 0
Rape plant response rating (rape; [4]): 0
Rape plant response rating (rape; [5]): 0
Plant response rating, Rape (rape; [6]): 0
Plant response rating, Rape (rape; [7]): 3
Barnyardgrass plant response rating (bamyardgrass; [8]): 0
Barnyardgrass plant response rating (0 to 10 scale, 0 is no effect, 10 is complete control) (bamyardgrass; [9]): 0
Barnyardgrass plant response rating (bamyardgrass; [10]): 0
Barnyardgrass plant response rating (bamyardgrass; [11]): 0
Plant response rating, Soybean (soybean; [1]): 2
Soybean plant response rating (soybean; [2]): 2
Plant response rating, Soybean (soybean; [3]): 2
Soybean plant response rating (soybean; [4]): 4
Soybean plant response rating (soybean; [5]): 0
Plant response rating, Soybean (soybean; [6]): 0
Plant response rating, Soybean (soybean; [7]): 0
Plant response rating, Corn (corn; [1]): 0
Corn plant response rating (corn; [2]): 0
Plant response rating, Corn (corn; [3]): 0
Corn plant response rating (corn; [4]): 0
Corn plant response rating (corn; [5]): 0
Corn plant response rating (0 to 10 scale) (corn; Preemergence, Rate 250 g/ha): 0
Plant response rating, Corn (corn; [6]): 0
Plant response rating, Corn (corn; [7]): 0
Rice plant response rating (rice; [8]): 0
Rice plant response rating (0 to 10 scale, 0 is no effect, 10 is complete control) (rice; [9]): 0
Rice plant response rating (rice; [10]): 0
Rice plant response rating (rice; [11]): 0
Plant response rating, Nutsedge (purple nutsedge; [3]): 0
Nutsedge plant response rating (purple nutsedge; [4]): 0
Nutsedge plant response rating (purple nutsedge; [5]): 0
Plant response rating, Nutsedge (purple nutsedge; [6]): 0
Plant response rating, Nutsedge (purple nutsedge; [7]): 0
Bedstraw plant response rating (bedstraw; Rate 125 g/ha): 0
Bedstraw plant response rating (0 to 10 scale) (bedstraw; Rate 250 g/ha): 0
Bedstraw plant response rating (bedstraw; Rate 500 g/ha): 0
Plant response rating, Bedstraw (bedstraw; Rate 1000 g/ha, scale 0 to 10 (0 no effect, 10 complete control)): 8
Plant response rating, Redroot pigweed (pigweed; [1]): 0
Redroot pigweed plant response rating (pigweed; [2]): 0
Plant response rating, Redroot pigweed (pigweed; [3]): 0
Redroot pigweed plant response rating (pigweed; [4]): 0
Redroot pigweed plant response rating (pigweed; [5]): 0
Plant response rating, Redroot pigweed (pigweed; [6]): 0
Plant response rating, Redroot pigweed (pigweed; [7]): 4
Plant response rating, Morningglory (morningglory; [1]): 1
Morningglory plant response rating (morningglory; [2]): 1
Plant response rating, Morningglory (morningglory; [3]): 6
Morningglory plant response rating (morningglory; [4]): 6
Morningglory plant response rating (morningglory; [5]): 0
Plant response rating, Morningglory (morningglory; [6]): 0
Plant response rating, Morningglory (morningglory; [7]): 0
Plant response rating, Giant foxtail (giant foxtail; [1]): 0
Giant foxtail plant response rating (giant foxtail; [2]): 0
Plant response rating, Giant foxtail (giant foxtail; [3]): 0
Giant foxtail plant response rating (giant foxtail; [4]): 4
Giant foxtail plant response rating (giant foxtail; [5]): 9
Plant response rating, Giant foxtail (giant foxtail; [6]): 10
Plant response rating, Giant foxtail (giant foxtail; [7]): 10
Plant response rating, Cocklebur (cocklebur; [1]): 0
Cocklebur plant response rating (cocklebur; [2]): 0
Plant response rating, Cocklebur (cocklebur; [3]): 0
Cocklebur plant response rating (cocklebur; [4]): 0
Cocklebur plant response rating (cocklebur; [5]): 0
Cocklebur plant response rating (0 to 10 scale) (cocklebur; Preemergence, Rate 250 g/ha): 0
Plant response rating, Cocklebur (cocklebur; [6]): 0
Plant response rating, Cocklebur (cocklebur; [7]): 3
Plant response rating, Blackgrass (blackgrass; [1]): 0
Blackgrass plant response rating (blackgrass; [2]): 0
Plant response rating, Blackgrass (blackgrass; [3]): 0
Blackgrass plant response rating (blackgrass; [4]): 6
Blackgrass plant response rating (blackgrass; [5]): 0
Blackgrass plant response rating (0 to 10 scale) (blackgrass; Preemergence, Rate 250 g/ha): 3
Blackgrass plant response rating (blackgrass; [6]): 6
Plant response rating, Blackgrass (blackgrass; [7]): 8
Plant response rating, B. signalgrass (surinam grass; [1]): 0
B. signalgrass plant response rating (surinam grass; [2]): 0
Plant response rating, B. signalgrass (surinam grass; [3]): 0
B. signalgrass plant response rating (surinam grass; [4]): 0
B. signalgrass plant response rating (surinam grass; [5]): 2
B. signalgrass plant response rating (0 to 10 scale, 0 is no effect, 10 is complete control) (surinam grass; Preemergence, Rate 250 g/ha): 2
B. signalgrass plant response rating (surinam grass; [6]): 3
Plant response rating, B. signalgrass (surinam grass; [7]): 3
S. Flatsedge plant response rating (smallflower flatsedge; [8]): 0
S. Flatsedge plant response rating (0 to 10 scale, 0 is no effect, 10 is complete control) (smallflower flatsedge; [9]): 0
S. Flatsedge plant response rating (smallflower flatsedge; [10]): 0
S. Flatsedge plant response rating (smallflower flatsedge; [11]): 0
Plant response rating, Velvetleaf (velvetleaf; [1]): 0
Velvetleaf plant response rating (velvetleaf; [2]): 0
Plant response rating, Velvetleaf (velvetleaf; [3]): 0
Velvetleaf plant response rating (velvetleaf; [4]): 3
Velvetleaf plant response rating (velvetleaf; [5]): 0
Plant response rating, Velvetleaf (velvetleaf; [6]): 0
Plant response rating, Velvetleaf (velvetleaf; [7]): 0
Plant response rating, Wild oats (wild oat; [1]): 0
Wild oats plant response rating (wild oat; [2]): 0
Plant response rating, Wild oats (wild oat; [3]): 0
Wild oats plant response rating (wild oat; [4]): 0
Wild oats plant response rating (wild oat; [5]): 0
Plant response rating, Wild oats (wild oat; [6]): 0
Plant response rating, Wild oats (wild oat; [7]): 0
Plant response rating, Crabgrass (crabgrass; [1]): 0
Crabgrass plant response rating (crabgrass; [2]): 0
Plant response rating, Crabgrass (crabgrass; [3]): 0
Crabgrass plant response rating (crabgrass; [4]): 0
Crabgrass plant response rating (crabgrass; [5]): 3
Plant response rating, Crabgrass (crabgrass; [6]): 8
Plant response rating, Crabgrass (crabgrass; [7]): 8
Ducksalad plant response rating (duck salad; [8]): 0
Ducksalad plant response rating (0 to 10 scale, 0 is no effect, 10 is complete control) (duck salad; [9]): 0
Ducksalad plant response rating (duck salad; [10]): 0
Ducksalad plant response rating (duck salad; [11]): 0

Reference: US6737383B1, “Herbicidal oxadiazolidines” (priority 1999, dated 2004)
